From patent US12459951B2, “Compounds that interact with RAS superfamily proteins for treatment of cancers, inflammatory diseases, rasopathies, and fibrotic disease” (SHY Therapeutics, LLC, priority 2022, dated 2025) come the findings set out here.

This assay has as its system Smad2/Smad3 phosphorylation. Description: Phospho-Smad2/3 Inhibition Assay (western blot), Panc-1. The assay is classed as cell-based, human. To be noted: at 10 μM, Panc-1 pancreatic cancer cell line; starred symbols = activation. The method, then: Protocol for Phospho-Smad2/3 Inhibition Assay
This assay is referred to as the “Phospho-Smad2/3 Inhibition Assay” throughout this application.
Cell lines: Human tumor-derived pancreatic cancer cell line Panc-1 (expressing KRas G12D mutant) and mouse muscle myoblast C2C12 were purchased from American Type Culture Collection and grown in complete DMEM-High Glucose, supplemented with penicillin (100 U/mL), streptomycin (100 μg/mL), and 10% heat-inactivated FBS at 37° C. in a humidified incubator with 5% CO2.
Method: Cells were plated at 350000 cells/well density in a 12-well plate, allowed 3 hours to adhere to the plate, then starved in the appropriate medium in the presence of 0.5% FBS overnight. The small molecules to be tested were added to the cells in the final concentration of 10 μM in the presence of 0.3% DMSO for 3 hours incubation at 37° C. For IC50 value determination, serial dilutions of compounds were added to cells under the same conditions. Next, Panc-1 cells were stimulated with 10 ng/ml TGF-b1 for 1 hour, and C2C12 cells were stimulated with 10 ng/ml TGF-b1 for 20 minutes (recombinant human TGF-b1, R&D Systems). After stimulation cells were lysed with lysis buffer containing 1% Triton X-100, EDTA, and Halt™ Protease & Phosphatase Inhibitor Cocktail (Thermo Scientific). Protein concentration was assessed by BCA protein assay (Thermo Scientific). Phosphorylation level of Smad2/Smad3 was determined by western blot.
Western blot protocol: Equal amounts of protein (15-50 μg) were separated by SDS-PAGE and transferred to nitrocellulose membranes (Invitrogen by Thermo Fisher Scientific). The membrane was stained with Ponceau S Stain (Boston BioProducts) to verify uniform protein loading. Membranes were blocked with 10% milk and phosphorylation levels of Smad2/Smad3 were assessed by incubating overnight at 4° C. with the following antibodies: Phospho-Smad2 (Ser465/467) and Phosph-Smad3 (Ser423/425), both from Cell Signaling Technology. Then the membranes were incubated with HRP-conjugated secondary antibody (Jackson Immunoresearch, West Grove, PA). Bands were incubated in Amersham ECL Prime Western Blotting Detection Reagent (GE Healthcare) and visualized using the ChemiDoc MP imaging system (Bio-Rad).
Background: Immunoblotting shows a protein as a band on a membrane.
For `Cc1c(-c2ccn(C3CC3)n2)cn2nc(-c3nccn3C)nc(Nc3cc(OC(F)F)ccn3)c12` [Compound 139, 6-(1-Cyclopropyl-1H-pyrazol-3-yl)-N-(4-(difluoromethoxy)pyridin-2-yl)-5-methyl-2-(1-methyl-1H-imidazol-2-yl)pyrrolo[2,1-f][1,2,4]triazin-4-amine], the “% inh of Smad2/3 phosphorylation in Panc-1” value (from here on “% inh”) is given as “A* (A* = 1-25% activation)”.

Take `COc1ccnc(Nc2nc(-c3nccn3C)nn3cc(-c4cccnc4)c(-c4cccnc4)c23)c1` [Compound 169, N-(4-methoxypyridin-2-yl)-2-(1-methyl-1H-imidazol-2-yl)-5,6-di(pyridin-3-yl)pyrrolo[2,1-f][1,2,4]triazin-4-amine]: the “% inh” value was “C (C = 46-75% inhibition)”.

Regarding `COCCO[C@H]1C[C@H](Nc2nc(-c3nccn3C)nn3cc(-c4ccnc(OC)c4)c(C)c23)C1` [Compound 161, N-((1r,3r)-3-(2-Methoxy-ethoxy)cyclo-butyl)-6-(2-methoxy-pyridin-4-yl)-5-methyl-2-(1-methyl-1H-imidazol-2-yl)pyrrolo[2,1-f][1,2,4]triazin-4-amine], the “% inh” value is given as “B (B = 26-45% inhibition)”.

On to `COc1cc(Nc2nc(-c3nccn3C)nn3cc(-c4ccn(C(F)F)n4)c(C)c23)ncn1` [Compound 98, 6-(1-(Difluoromethyl)-1H-pyrazol-3-yl)-N-(6-methoxypyrimidin-4-yl)-5-methyl-2-(1-methyl-1H-imidazol-2-yl)pyrrolo[2,1-f][1,2,4]triazin-4-amine], for which the “% inh” value was “D (D = 76-100% inhibition)”.

In the case of `Cc1c(-c2ccn(C3CC3)n2)cn2nc(-c3nccn3C)nc(Nc3cc(OC(F)(F)F)ccn3)c12` [Compound 138, 6-(1-Cyclopropyl-1H-pyrazol-3-yl)-5-methyl-2-(1-methyl-1H-imidazol-2-yl)-N-(4-(trifluoromethoxy)pyridin-2-yl)pyrrolo[2,1-f][1,2,4]triazin-4-amine], the “% inh” value was “A* (A* = 1-25% activation)”.

Take `CO[C@H]1C[C@H](Nc2nc(-c3nccn3C)nn3cc(-c4ccncc4)c(C)c23)C1` [Compound 159, N-((1r,3r)-3-Methoxycyclobutyl)-5-methyl-2-(1-methyl-1H-imidazol-2-yl)-6-(pyridin-4-yl)pyrrolo[2,1-f][1,2,4]triazin-4-amine]: the “% inh” value is “C (C = 46-75% inhibition)”.

`Cc1c(-c2ccn(C(C)C)n2)cn2nc(-c3nccn3C)nc(Nc3nccn3C)c12` [Compound 93, 6-(1-Isopropyl-1H-pyrazol-3-yl)-5-methyl-N,2-bis(1-methyl-1H-imidazol-2-yl)pyrrolo[2,1-f][1,2,4]triazin-4-amine]: the “% inh” value is listed as “A (A = 1-25% inhibition)”.

Regarding `CO[C@H]1C[C@@H](Nc2nc(-c3nccn3C)nn3cc(-c4cccnc4)c(C)c23)C1` [Compound 153, N-((1s,3s)-3-methoxy-cyclobutyl)-5-methyl-2-(1-methyl-1H-imidazol-2-yl)-6-(pyridin-3-yl)pyrrolo[2,1-f][1,2,4]triazin-4-amine], the “% inh” value was “C (C = 46-75% inhibition)”.

`COCCOc1cc(Nc2nc(-c3nccn3C)nn3cc(-c4ccn(C(C)C)n4)c(C)c23)ncn1` [Compound 122, 6-(1-Isopropyl-1H-pyrazol-3-yl)-N-(6-(2-methoxyethoxy)pyrimidin-4-yl)-5-methyl-2-(1-methyl-1H-imidazol-2-yl)pyrrolo[2,1-f][1,2,4]triazin-4-amine]: the “% inh” value is “C (C = 46-75% inhibition)”.

Consider `Cc1c(-c2ccn(C)n2)cn2nc(-c3nccn3C)nc(Nc3n[nH]c(C4CC4)n3)c12` [Compound 113, N-(5-Cyclopropyl-1H-1,2,4-triazol-3-yl)-5-methyl-2-(1-methyl-1H-imidazol-2-yl)-6-(1-methyl-1H-pyrazol-3-yl)pyrrolo[2,1-f][1,2,4]triazin-4-amine], for which the “% inh” value is given as “D* (D* = 76-100% activation)”.

In the case of `Cc1c(-c2ccn(C)n2)cn2nc(-c3nccn3C)nc(Nc3ncccn3)c12.Cl` [Compound 115, 5-Methyl-2-(1-methyl-1H-imidazol-2-yl)-6-(1-methyl-1H-pyrazol-3-yl)-N-(pyrimidin-2-yl)pyrrolo[2,1-f][1,2,4]triazin-4-amine hydrochloride salt], the “% inh” value is recorded as “A (A = 1-25% inhibition)”.

In the case of `Cc1c(-c2ccn(C)n2)cn2nc(-c3nccn3C)nc(Nc3cc(OC(C)C)ccn3)c12` [Compound 136, N-(4-Isopropoxypyridin-2-yl)-5-methyl-2-(1-methyl-1H-imidazol-2-yl)-6-(1-methyl-1H-pyrazol-3-yl)pyrrolo[2,1-f][1,2,4]triazin-4-amine], the “% inh” value was “A (A = 1-25% inhibition)”.

In the case of `CO[C@H]1CC[C@@H](Nc2nc(-c3nccn3C)nn3cc(-c4cccnc4)c(C)c23)C1` (racemic) [Compound 155, rac N-((1R,3S)-3-methoxy-cyclopentyl)-5-methyl-2-(1-methyl-1H-imidazol-2-yl)-6-(pyridin-3-yl)pyrrolo[2,1-f][1,2,4]triazin-4-amine], the “% inh” value was “A (A = 1-25% inhibition)”.

With `Cc1c(-c2ccn(C(C)C)n2)cn2nc(-c3nccn3C)nc(Nc3ncc[nH]3)c12` [Compound 125, N-(1H-Imidazol-2-yl)-6-(1-isopropyl-1H-pyrazol-3-yl)-5-methyl-2-(1-methyl-1H-imidazol-2-yl)pyrrolo[2,1-f][1,2,4]triazin-4-amine], the “% inh” value is “B (B = 26-45% inhibition)”.

As to `CO[C@H]1C[C@H](Nc2nc(-c3nccn3C)nn3cc(-c4cccnc4)c(-c4ccccn4)c23)C1` [Compound 168, N-((1r,3r)-3-Methoxycyclobutyl)-2-(1-methyl-1H-imidazol-2-yl)-5-(pyridin-2-yl)-6-(pyridin-3-yl)pyrrolo[2,1-f][1,2,4]triazin-4-amine], the “% inh” value is listed as “A* (A* = 1-25% activation)”.

As for `COc1ccnc(Nc2nc(-c3nccn3C)nn3cc(-c4ccn(C)n4)c(C)c23)n1.Cl` [Compound 114, N-(4-Methoxypyrimidin-2-yl)-5-methyl-2-(1-methyl-1H-imidazol-2-yl)-6-(1-methyl-1H-pyrazol-3-yl)pyrrolo[2,1-f][1,2,4]triazin-4-amine hydrochloride salt], the “% inh” value is listed as “D* (D* = 76-100% activation)”.

As to `COc1cc(-c2cn3nc(-c4nccn4C)nc(N[C@H]4C[C@H](OC)C4)c3c2C)ccn1` [Compound 160, N-((1r,3r)-3-Methoxycyclobutyl)-6-(2-methoxypyridin-4-yl)-5-methyl-2-(1-methyl-1H-imidazol-2-yl)pyrrolo[2,1-f][1,2,4]triazin-4-amine], the “% inh” value was “A* (A* = 1-25% activation)”.

`Cc1c(-c2ccn(C)n2)cn2nc(-c3nccn3C)nc(Nc3nccc(OCCN(C)C)n3)c12` [Compound 105, N-(4-(2-(Dimethylamino)ethoxy)pyrimidin-2-yl)-5-methyl-2-(1-methyl-1H-imidazol-2-yl)-6-(1-methyl-1H-pyrazol-3-yl)pyrrolo[2,1-f][1,2,4]triazin-4-amine]: the “% inh” value was “A (A = 1-25% inhibition)”.

Take `COc1ccnc(Nc2nc(-c3nccn3C)nn3cc(-c4ccn(C(F)F)n4)c(C)c23)n1` [Compound 95, 6-(1-(Difluoromethyl)-1H-pyrazol-3-yl)-N-(4-methoxypyrimidin-2-yl)-5-methyl-2-(1-methyl-1H-imidazol-2-yl)pyrrolo[2,1-f][1,2,4]triazin-4-amine]: the “% inh” value is listed as “C* (C* = 46-75% activation)”.

For the compound `CO[C@@H]1CC[C@@H](Nc2nc(-c3nccn3C)nn3cc(-c4cccnc4)c(C)c23)C1` (racemic) [Compound 154, rac N-((1R,3R)-3-methoxy-cyclopentyl)-5-methyl-2-(1-methyl-1H-imidazol-2-yl)-6-(pyridin-3-yl)pyrrolo[2,1-f][1,2,4]triazin-4-amine], the “% inh” value is given as “C (C = 46-75% inhibition)”.

For `COc1ccnc(Nc2nc(-c3nccn3C)nn3cc(-c4cccnc4)c(-c4ccccn4)c23)c1` [Compound 166, N-(4-Methoxypyridin-2-yl)-2-(1-methyl-1H-imidazol-2-yl)-5-(pyridin-2-yl)-6-(pyridin-3-yl)pyrrolo[2,1-f][1,2,4]triazin-4-amine], the “% inh” value was “C* (C* = 46-75% activation)”.

Regarding `Cc1c(-c2ccn(C3CC3)n2)cn2nc(-c3nccn3C)nc(Nc3cc(OCCN(C)C)ccn3)c12` [Compound 147, 6-(1-Cyclopropyl-1H-pyrazol-3-yl)-N-(4-(2-(dimethylamino)ethoxy)pyridin-2-yl)-5-methyl-2-(1-methyl-1H-imidazol-2-yl)pyrrolo[2,1-f][1,2,4]triazin-4-amine], the “% inh” value was “C (C = 46-75% inhibition)”.
